The values that follow come from publication PMC5397431, “Multigeneration toxicity of imidacloprid and thiacloprid to Folsomia candida” (Ecotoxicology (London, England), 2017).

A short description of data set [1]: Chemical analysis of concentrations in test soil (LC-MS) and degradation half-life (DT50). Type of data set: physicochemical. Conditions: for concentration, % of the nominal concentration: after 63 days. The procedure:
Soil samples for chemical analysis of imidacloprid and thiacloprid in the test soil were taken at the start of the exposure of each new generation.
The analytical method to determine actual imidacloprid and thiacloprid concentrations in the test soils followed the principles of the QuEChERS extraction method modified from Anastasiades et al. ([2003]) and Payá et al. ([2007]). Briefly, the procedure used was as follows: approx. 1 g moist soil was taken for low concentration treatments (<1 mg/kg), and 50 µL internal standard (Imidacloprid-d4 and Thiacloprid-d4, 250 µg/L) was added. The sample was shaken for 20 min at 250 rpm with 2 mL methanol and centrifuged for 3 min at 1500 rpm. The methanol phase was passed through a granular Na2SO4 column, evaporated till dryness and the residue taken up in 3 mL acetonitrile. For high concentration samples (>1 mg/kg), the soil was first shaken with methanol and centrifuged. Subsequently an aliquot of 100 µL was taken and together with 50 µL internal standard (Imidacloprid-d4 and Thiacloprid-d4, 250 µg/L) added to 1 mL methanol, passed through a granular Na2SO4 column, evaporated to dryness and taken up in 3 mL acetonitrile. For clean-up, the acetonitrile extract was added to a tube filled with Supel QuE (C18 150 mg, PSA 150 mg, MgSO4 900 mg, Sigma Aldrich), shaken by hand for 2 min and centrifuged for 3 min at 3000 rpm. The supernatant was evaporated till dryness under gentle nitrogen stream and the residue taken up in 200 µL of a water-methanol (9/1) mixture.
Extracts were analyzed using LC-MS and quantified by isotope dilution (imidacloprid-d4 and thiacloprid-d4). The neonicotinoids were separated on a 100 × 2.1 mm, 2.6 µm Kinetex XB-C18 column (Phenomenex), applying a gradient of 5 mM ammonium formate pH 4 buffer and methanol, at a flow rate of 0.3 mL/min. The LC system (Agilent 1200 series) was coupled to a 6410 triple quadrupole MS (Agilent) using electrospray ionization (ESI) with data acquisition in positive ion mode. The transitions for imidacloprid were 256.1 > 175/209 (quantifier/qualifier) and for imidacloprid-d4 260 > 179. For thiacloprid the transitions were253.1 > 126/90 (quantifier/qualifier) with 257 > 126 for thiacloprid-d4.
Using data on the imidacloprid and thiacloprid concentrations measured at different times after spiking the soil in the multigeneration test, half-life (DT50) values were estimated assuming first order degradation kinetics. The equation C = C0 * e^−k*t was fitted to the data, with C = concentration at time t in days, C0 is concentration at t = 0 and k = degradation rate constant (day^−1). DT50 was derived as ln(2) / k.

In data set [2] the test system is Folsomia candida. Kind of data set: Multigeneration toxicity test (survival and reproduction) with springtails in spiked LUFA 2.2 soil. It counts as in vivo. Conditions: for EC10 / EC50: number of juveniles. Here is the method: F. candida were taken from cultures at the Department of Ecological Science at the Vrije Universiteit in Amsterdam. To obtain age-synchronized animals, adults from the culture were separated in boxes with a layer of plaster of Paris over a period of 2–3 days to lay eggs, after which they were removed. After removal of the adults, the eggs were incubated under a 12 h light/12 h dark regime at 20 °C and 75% relative humidity, where they hatched and grew. Juveniles of 10–12 days old were used for testing.
All tests were performed in the natural standard LUFA 2.2 (Lufa Speyer, Germany), a loamy sand with 1.59 ± 0.13% organic carbon, pH in 0.01 M CaCl2 of 5.4 ± 0.2, and water holding capacity (WHC) of 43.5 ± 2.8% of its dry weight.
Pure imidacloprid and thiacloprid (purity 98%) were kindly provided by Bayer CropScience, Monheim, Germany. Test concentrations of imidacloprid and thiacloprid were based on the results of earlier tests. Stock solution of both compounds in water were prepared, to spike the chemicals into the soil and at the same time bringing moisture content to the desired level of 50% of the WHC. To ensure complete thiacloprid dissolution, a small amount of acetone was added to the stock solution. This stock solution was used to spike soil with the highest test concentration and further diluted for spiking soil with the lower concentrations tested. Considering the low amount of acetone needed to make thiacloprid completely dissolve, no attempts were made to correct for that by adding acetone to the lower concentrations and control in the multigeneration test. All soils were thoroughly mixed to achieve a homogenous distribution of the test chemicals in the test soil.
Multigeneration tests started with a control, […] imidacloprid (0, 0.001, 0.003, 0.01, 0.03, 0.1, 0.3, 1.0 mg/kg dry soil) and 9 thiacloprid concentrations (0, 0.0015, 0.0045, 0.014, 0.041, 0.11, 0.31, 1.1, 3.3, 10.0 mg/kg dry soil). Batches of soil sufficient to perform three toxicity tests were prepared. After filling test jars for the parent generation exposure, the remaining spiked soil was stored in glass jars in a climate room at 20 °C for subsequent exposure of the next two generations. Moisture content of the spiked soil was checked regularly by weighing the jars, and replenished by adding deionized water if needed.
After 28 days (35 days for the second generation), the juveniles from the same exposure concentration were pooled in the same container with a moist plaster of Paris bottom and incubated overnight before being transferred to the next cycle of exposure. This experiment spanned a total of three continuous generations (referred to as F0, F1, and F2).

The conditions of data set [3]: cited from earlier work.
Data set [4] relates to Folsomia candida. The conditions noted are these: cited from earlier work.
Data set [5] concerns Folsomia candida. The conditions noted are these: 28 days, LUFA 2.2 soil. The procedure: Tests were performed in 100 ml glass jars, containing c. 30 g moist soil, using five replicate test jars for each exposure concentration. Each jar received ten 10–12 day old animals from age-synchronized cultures, after checking their health under a binocular microscope. The animals were fed with a few grains of dry baker’s yeast (Instant yeast from Algist Bruggeman N.V, Ghent, Belgium) weekly, in small amounts to avoid fungal growth. All incubations took place at 20 ± 2 °C at 75% Relative Humidity and a photoperiod of 16:8 dark: light hours. Test jars were weighed at the start, so that water loss could be monitored on a weekly basis and replenished with deionized water if needed. After exposure, all animals were extracted by flotation and pictures were taken to enable counting the number of surviving adults and juveniles produced using the software package ImageJ with a Cell Counter extension.
If no proper fit was obtained, LC50 values were calculated using the trimmed Spearman-Karber method (Hamilton et al. [1977]/78). No observed effect concentrations (NOEC) were determined applying a one-way ANOVA followed by a one-sided Dunnett’s post hoc test at a significance level of p < 0.05. All statistical analysis, except for the Trimmed Spearman Karber method, were run in SPSS 23.

Setting [6] is: F0 generation, 28 days, LUFA 2.2 soil, nominal concentrations.
[7] abbreviates: F1 and F2 generations, 3.3 mg/kg dry soil.
Setting [8] is: F1 generation, 35 days, soil spiked at start of F0, nominal concentrations.
Where [9] appears, read: F2 generation, 28 days, soil spiked at start of F0, nominal concentrations.
[10] abbreviates: F2 generation, 28 days, soil spiked at start of F0, nominal concentrations, listed as thiacloprid.
The mark [11] stands for this setting: 28-day exposure, Lufa 2.2, ~3.0% OM, pure, ref De Lima e Silva et al. (submitted).
The mark [12] stands for this setting: number of juveniles, with 95% confidence interval.

Several values for one entry are separate records, joined by “and”; a condition that tells them apart may be missing. Identical values can stand only once. Like-named read-outs stand apart in the source and are kept apart here. A value given as a limit tells only on which side of the number the result lay.

Broadly, the half-life is the time in which the quantity being followed falls by half. As for `N#C/N=C1\SCCN1Cc1ccc(Cl)nc1` [Thiacloprid, thiacloprid], in data set [1] (LUFA 2.2 soil (spiked natural loamy sand), pH 5.4, LUFA 2.2 soil, 20 °C, first order kinetics, read-out: DT50 (half-life) for degradation in test soil), the half-life lay in the range of 240 to 288 h. In addition, in data set [1] (LUFA 2.2 soil, after 28 days, 1.1 and 3.3 mg/kg dry soil), the “concentration, % of nominal” value is 91.2–101% and 90–100%. For the same compound, the “concentration, % of the nominal values” in data set [1] (LUFA 2.2 soil, after 63 days of incubation, all concentrations) was 7.6–22.0%. The “concentration, % of the nominal concentration” value in data set [1] (LUFA 2.2 soil, 0.0137 mg/kg) is given as 22.0%; in data set [1] (LUFA 2.2 soil, 0.113 mg/kg) it was 19.8%. Also, the “concentration measured in soil” value in data set [1] (T=28, nominal 1.11, mean ± SD (n=3)) was found to be 1.1±0.35 mg/kg dry soil; in data set [1] (T=28, nominal 3.33, mean ± SD (n=3)), 3.0±0.42 mg/kg dry soil; in data set [1] (T=28, nominal 10, mean ± SD (n=3)), 5.7±0.27 mg/kg dry soil; in data set [1] (T=63 d, nominal 0.014, mean ± SD (n=3)), 0.003±0.0002 mg/kg dry soil; in data set [1] (T=63 d, nominal 0.113, mean ± SD (n=3)), 0.022±0.00044 mg/kg dry soil; in data set [1] (T=63 d, nominal 1.11, mean ± SD (n=3)), 0.12±0.0054 mg/kg dry soil. Further, the “concentration measured in soil” value in data set [1] (T=63 d, nominal 3.33, mean ± SD (n=3)) was found to be 0.26±0.0038 mg/kg dry soil; in data set [1] (T=63 d, nominal 10, mean ± SD (n=3)), 0.76±0.015 mg/kg dry soil. For the same compound, in the data set on Folsomia candida [2] (F0 generation, 3.3 mg/kg dry soil), the effect on reproduction entry is listed as “significantly reduced”. For the same compound, the NOEC with Folsomia candida [2] (setting [6]) is listed as 0.11 mg/kg dry soil; in the data set on Folsomia candida [2] (setting [8]), at least 3.3 mg/kg dry soil; with Folsomia candida [2] (setting [10]), 1.1 mg/kg dry soil. The LC50 was 9.0 mg/kg dry soil with Folsomia candida [2] (F0 generation, 28 days, adult survival, LUFA 2.2 soil, nominal concentrations); > 3.33 mg/kg dry soil and > 3.3 mg/kg dry soil in the data set on Folsomia candida [2] (setting [8]); over 3.3 mg/kg dry soil in the data set on Folsomia candida [2] (setting [9]); > 3.33 mg/kg dry soil and > 3.3 mg/kg dry soil with Folsomia candida [2] (setting [10]); 4.3-4.9 mg/kg dry soil in the data set with Folsomia candida [4] (setting [11]). Moreover, the results for the EC10 with Folsomia candida [2] (setting [6]) and in the data set with Folsomia candida [2] (setting [9]) were 0.23 mg/kg dry soil and over 3.3 mg/kg dry soil, respectively. The EC50 with Folsomia candida [2] (setting [6]) was 1.5 mg/kg dry soil; in the data set with Folsomia candida [2] (setting [8]), > 3.33 mg/kg dry soil and > 3.3 mg/kg dry soil; with Folsomia candida [2] (setting [9]) it was over 3.3 mg/kg dry soil; in the data set with Folsomia candida [2] (setting [10]) it was > 3.33 mg/kg dry soil and > 3.3 mg/kg dry soil; in the data set with Folsomia candida [4] (setting [11]) it was 1.7-2.4 mg/kg dry soil. Also, the “juveniles produced, on average” value with Folsomia candida [2] (F0 generation, highest concentration tested 10 mg/kg dry soil) amounted to 3 per jar. Besides, in the data set on Folsomia candida [2] (setting [7]), the “effects on juvenile numbers” value is “no effects”. For the same compound, in the data set with Folsomia candida [2] (setting [7]), the springtail reproduction affected result was “less than 50%”. In addition, the “LC50, range over generations” value with Folsomia candida [2] (range over the three generations, Lufa 2.2, pure compound, this study) is reported as >3.33-9.0 mg/kg dry soil. Further, in data set [3] (field, ref European Commission (2004)), the field-based half-lives was 9 to 27 days. For the same compound, the half-life in soil in data set [3] (laboratory tests, ref Goulson (2013), Bonmatin et al. (2015)) was 81.6 to 1780 h. In data set [3] (ref Goulson (2013), Bonmatin et al. (2015)), the “factor less persistent in soil than imidacloprid” value was 10.

For the compound `OB(O)O` [Boric acid, boric acid], in the data set on Folsomia candida [4] (OECD artificial soil, value mentioned in the test guideline, ref OECD (2009)), the EC50 was 100 mg/kg dry soil. In the data set with Folsomia candida [5], this compound returned an NOEC of 20 mg/kg dry soil. For the same compound, in the data set on Folsomia candida [5] (setting [12]), the EC10 is recorded as 29 (25–33) mg/kg dry soil and the EC50 is on record as 51 (47–54) mg/kg dry soil.
